Key:
[1] = molecular target: Serine/threonine-protein kinase MRCK beta (Homo sapiens) (UniProt Q9Y5S2); assay: CDC42BPB ProQinase selectivity panel; conditions: Compound concentration 1.0 uM
[2] = molecular target: Mitogen-activated protein kinase kinase kinase kinase 4 (Homo sapiens) (UniProt O95819); assay: MAP4K4 ProQinase selectivity panel; conditions: Compound concentration 1.0 uM
[3] = test system: Platelet-derived growth factor receptor alpha (Homo sapiens), P16234 [D842V]; assay: PDGFR-alpha D842V ProQinase selectivity panel; conditions: Compound concentration 1.0 uM
[4] = test system: Mast/stem cell growth factor receptor Kit (Homo sapiens), P10721 [T670I]; assay: KIT T670I ProQinase selectivity panel; conditions: Compound concentration 1.0 uM
[5] = test system: Tyrosine-protein kinase ABL1 (Homo sapiens), P00519 [H396P]; assay: ABL1 H396P ProQinase selectivity panel; conditions: Compound concentration 1.0 uM
[6] = molecular target: Phosphorylase b kinase gamma catalytic chain, skeletal muscle/heart isoform (Homo sapiens) (UniProt Q16816); assay: PHKG1 ProQinase selectivity panel; conditions: Compound concentration 1.0 uM
[7] = test system: Hepatocyte growth factor receptor (Homo sapiens), P08581 [F1200I]; assay: MET F1200I ProQinase selectivity panel; conditions: Compound concentration 1.0 uM
[8] = molecular target: D(3) dopamine receptor (Homo sapiens) (UniProt P35462); conditions: Compound concentration 10.0 uM
[9] = molecular target: Protein kinase C epsilon type (Homo sapiens) (UniProt Q02156); assay: PKC-epsilon ProQinase selectivity panel; conditions: Compound concentration 1.0 uM
[10] = molecular target: Death-associated protein kinase 3 (Homo sapiens) (UniProt O43293); assay: DAPK3 ProQinase selectivity panel; conditions: Compound concentration 1.0 uM
[11] = molecular target: Macrophage-stimulating protein receptor (Homo sapiens) (UniProt Q04912); assay: RON ProQinase selectivity panel; conditions: Compound concentration 1.0 uM
[12] = molecular target: Tyrosine-protein kinase Fer (Homo sapiens) (UniProt P16591); assay: FER ProQinase selectivity panel; conditions: Compound concentration 1.0 uM
[13] = test system: Leucine-rich repeat serine/threonine-protein kinase 2 (Homo sapiens), Q5S007 [R1441C]; assay: LRRK2 R1441C ProQinase selectivity panel; conditions: Compound concentration 1.0 uM
[14] = molecular target: Protein kinase C delta type (Homo sapiens) (UniProt Q05655); assay: PKC-delta ProQinase selectivity panel; conditions: Compound concentration 1.0 uM
[15] = test system: Epidermal growth factor receptor (Homo sapiens), P00533 [G719S]; assay: EGF-R G719S ProQinase selectivity panel; conditions: Compound concentration 1.0 uM
[16] = molecular target: Alpha-1D adrenergic receptor (Homo sapiens) (UniProt P25100); conditions: Compound concentration 10.0 uM
[17] = test system: Tyrosine-protein kinase ABL1 (Homo sapiens), P00519 [G250E]; assay: ABL1 G250E ProQinase selectivity panel; conditions: Compound concentration 1.0 uM
[18] = molecular target: Death-associated protein kinase 1 (Homo sapiens) (UniProt P53355); assay: DAPK1 ProQinase selectivity panel; conditions: Compound concentration 1.0 uM
[19] = molecular target: Ribosomal protein S6 kinase alpha-5 (Homo sapiens) (UniProt O75582); assay: RPS6KA5 ProQinase selectivity panel; conditions: Compound concentration 1.0 uM
[20] = molecular target: Homeodomain-interacting protein kinase 2 (Homo sapiens) (UniProt Q9H2X6); assay: HIPK2 ProQinase selectivity panel; conditions: Compound concentration 1.0 uM
[21] = molecular target: Cyclin-dependent kinase 9 (Homo sapiens) (UniProt P50750); assay: CDK9/CycT ProQinase selectivity panel; conditions: Compound concentration 1.0 uM
[22] = molecular target: Beta-2 adrenergic receptor (Homo sapiens) (UniProt P07550); conditions: Compound concentration 10.0 uM
[23] = molecular target: Mitogen-activated protein kinase 13 (Homo sapiens) (UniProt O15264); assay: p38-delta ProQinase selectivity panel; conditions: Compound concentration 1.0 uM
[24] = molecular target: D(2) dopamine receptor (Homo sapiens) (UniProt P14416); conditions: Compound concentration 10.0 uM
[25] = molecular target: Serine/threonine-protein kinase 4 (Homo sapiens) (UniProt Q13043); assay: MST1 ProQinase selectivity panel; conditions: Compound concentration 1.0 uM
[26] = molecular target: G protein-coupled receptor kinase 6 (Homo sapiens) (UniProt P43250); assay: GRK6 ProQinase selectivity panel; conditions: Compound concentration 1.0 uM
[27] = test system: Tyrosine-protein kinase ABL1 (Homo sapiens), P00519 [Q252H]; assay: ABL1 Q252H ProQinase selectivity panel; conditions: Compound concentration 1.0 uM
[28] = molecular target: Beta-1 adrenergic receptor (Homo sapiens) (UniProt P08588); conditions: Compound concentration 10.0 uM
[29] = molecular target: Rhodopsin kinase GRK7 (Homo sapiens) (UniProt Q8WTQ7); assay: GRK7 ProQinase selectivity panel; conditions: Compound concentration 1.0 uM
[30] = molecular target: Muscarinic acetylcholine receptor M1 (Homo sapiens) (UniProt P11229); conditions: Compound concentration 10.0 uM
[31] = molecular target: Mitogen-activated protein kinase 3 (Homo sapiens) (UniProt P27361); assay: ERK1 ProQinase selectivity panel; conditions: Compound concentration 1.0 uM
[32] = molecular target: Muscarinic acetylcholine receptor M5 (Homo sapiens) (UniProt P08912); conditions: Compound concentration 10.0 uM
[33] = molecular target: Tyrosine-protein kinase Blk (Homo sapiens) (UniProt P51451); assay: BLK ProQinase selectivity panel; conditions: Compound concentration 1.0 uM
[34] = test system: Dual specificity mitogen-activated protein kinase kinase 6 (Homo sapiens), P52564 [S207D,T211D]; assay: MKK6 S207D/T211D ProQinase selectivity panel; conditions: Compound concentration 1.0 uM
[35] = molecular target: MAP kinase-interacting serine/threonine-protein kinase 1 (Homo sapiens) (UniProt Q9BUB5); assay: MKNK1 ProQinase selectivity panel; conditions: Compound concentration 1.0 uM
[36] = molecular target: Mitogen-activated protein kinase kinase kinase 5 (Homo sapiens) (UniProt Q99683); assay: ASK1 ProQinase selectivity panel; conditions: Compound concentration 1.0 uM
[37] = molecular target: Ephrin type-B receptor 3 (Homo sapiens) (UniProt P54753); assay: EPHB3 ProQinase selectivity panel; conditions: Compound concentration 1.0 uM
[38] = molecular target: Lymphokine-activated killer T-cell-originated protein kinase (Homo sapiens) (UniProt Q96KB5); assay: PBK ProQinase selectivity panel; conditions: Compound concentration 1.0 uM
[39] = molecular target: Ribosomal protein S6 kinase alpha-2 (Homo sapiens) (UniProt Q15349); assay: RPS6KA2 ProQinase selectivity panel; conditions: Compound concentration 1.0 uM
[40] = molecular target: Mitogen-activated protein kinase kinase kinase 8 (Homo sapiens) (UniProt P41279); assay: COT ProQinase selectivity panel; conditions: Compound concentration 1.0 uM
[41] = molecular target: SRSF protein kinase 1 (Homo sapiens) (UniProt Q96SB4); assay: SRPK1 ProQinase selectivity panel; conditions: Compound concentration 1.0 uM
[42] = molecular target: Cyclin-dependent kinase 2/cyclin E (Homo sapiens) (UniProt P24864+P24941+O96020); assay: CDK2/CycE ProQinase selectivity panel; assay type: protein-complex assay; conditions: Compound concentration 1.0 uM
[43] = molecular target: 5-hydroxytryptamine receptor 1D (Homo sapiens) (UniProt P28221); conditions: Compound concentration 10.0 uM
[44] = molecular target: Serine/threonine-protein kinase Sgk2 (Homo sapiens) (UniProt Q9HBY8); assay: SGK2 ProQinase selectivity panel; conditions: Compound concentration 1.0 uM
[45] = molecular target: Cyclin-dependent kinase 5/CDK5 activator 1 (Homo sapiens) (UniProt Q00535+Q15078); assay: CDK5/p35NCK ProQinase selectivity panel; assay type: protein-complex assay; conditions: Compound concentration 1.0 uM
[46] = molecular target: Tyrosine-protein kinase CSK (Homo sapiens) (UniProt P41240); assay: CSK ProQinase selectivity panel; conditions: Compound concentration 1.0 uM
[47] = molecular target: Interferon-induced, double-stranded RNA-activated protein kinase (Homo sapiens) (UniProt P19525); assay: EIF2AK2 ProQinase selectivity panel; conditions: Compound concentration 1.0 uM
[48] = molecular target: Tyrosine-protein kinase JAK3 (Homo sapiens) (UniProt P52333); assay: JAK3 ProQinase selectivity panel; conditions: Compound concentration 1.0 uM
Sequence of Tyrosine-protein kinase JAK3 (Homo sapiens) (P52333 whole entry): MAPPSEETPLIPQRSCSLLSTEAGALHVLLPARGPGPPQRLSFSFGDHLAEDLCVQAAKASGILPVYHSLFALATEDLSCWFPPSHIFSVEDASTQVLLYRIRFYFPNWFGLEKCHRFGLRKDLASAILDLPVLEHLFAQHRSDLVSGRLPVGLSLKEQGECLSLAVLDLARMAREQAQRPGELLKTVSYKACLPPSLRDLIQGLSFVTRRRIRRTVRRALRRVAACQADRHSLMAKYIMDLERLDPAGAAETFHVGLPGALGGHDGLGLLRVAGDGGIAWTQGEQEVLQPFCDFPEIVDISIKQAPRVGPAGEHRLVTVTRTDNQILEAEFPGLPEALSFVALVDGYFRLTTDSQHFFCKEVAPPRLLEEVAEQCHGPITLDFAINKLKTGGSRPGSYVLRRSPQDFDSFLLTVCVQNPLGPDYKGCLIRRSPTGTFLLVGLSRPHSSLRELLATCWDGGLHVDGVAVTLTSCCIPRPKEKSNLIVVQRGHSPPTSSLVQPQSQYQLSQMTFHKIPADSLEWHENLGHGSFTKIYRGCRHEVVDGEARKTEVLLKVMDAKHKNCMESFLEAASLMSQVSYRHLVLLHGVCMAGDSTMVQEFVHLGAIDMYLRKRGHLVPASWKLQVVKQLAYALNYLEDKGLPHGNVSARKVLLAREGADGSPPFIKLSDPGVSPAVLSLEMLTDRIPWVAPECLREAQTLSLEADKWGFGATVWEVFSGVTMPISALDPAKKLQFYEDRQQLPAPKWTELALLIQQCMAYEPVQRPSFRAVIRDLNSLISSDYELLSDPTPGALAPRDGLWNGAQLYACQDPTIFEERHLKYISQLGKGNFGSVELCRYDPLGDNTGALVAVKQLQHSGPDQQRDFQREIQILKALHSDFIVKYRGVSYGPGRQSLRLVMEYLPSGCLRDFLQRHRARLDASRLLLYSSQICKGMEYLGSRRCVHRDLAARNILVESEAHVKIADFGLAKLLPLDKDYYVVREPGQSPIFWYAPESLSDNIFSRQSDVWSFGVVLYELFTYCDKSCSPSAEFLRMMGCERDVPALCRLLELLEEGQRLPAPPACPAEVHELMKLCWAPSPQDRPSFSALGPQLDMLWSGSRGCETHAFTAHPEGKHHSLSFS

Sequence of SRSF protein kinase 1 (Homo sapiens) (Q96SB4 whole entry): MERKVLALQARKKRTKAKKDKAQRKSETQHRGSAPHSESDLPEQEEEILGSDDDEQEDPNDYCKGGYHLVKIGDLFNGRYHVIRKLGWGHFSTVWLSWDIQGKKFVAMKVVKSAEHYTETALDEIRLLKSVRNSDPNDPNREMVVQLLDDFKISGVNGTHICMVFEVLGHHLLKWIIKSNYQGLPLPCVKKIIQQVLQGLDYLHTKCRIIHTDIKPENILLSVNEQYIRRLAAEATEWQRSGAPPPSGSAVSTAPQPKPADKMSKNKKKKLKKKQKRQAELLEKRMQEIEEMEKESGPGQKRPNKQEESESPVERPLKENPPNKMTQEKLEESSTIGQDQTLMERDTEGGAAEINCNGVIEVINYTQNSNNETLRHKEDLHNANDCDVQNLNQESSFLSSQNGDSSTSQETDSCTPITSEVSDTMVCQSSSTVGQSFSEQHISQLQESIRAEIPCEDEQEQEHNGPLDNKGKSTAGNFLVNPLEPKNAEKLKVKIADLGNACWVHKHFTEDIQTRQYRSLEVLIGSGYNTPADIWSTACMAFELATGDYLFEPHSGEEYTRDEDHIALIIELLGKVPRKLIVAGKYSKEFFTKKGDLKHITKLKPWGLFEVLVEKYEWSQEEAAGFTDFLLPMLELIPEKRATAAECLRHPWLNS
Sequence of Dual specificity mitogen-activated protein kinase kinase 6 (Homo sapiens), P52564 [S207D,T211D] (P52564 whole entry S207D/T211D): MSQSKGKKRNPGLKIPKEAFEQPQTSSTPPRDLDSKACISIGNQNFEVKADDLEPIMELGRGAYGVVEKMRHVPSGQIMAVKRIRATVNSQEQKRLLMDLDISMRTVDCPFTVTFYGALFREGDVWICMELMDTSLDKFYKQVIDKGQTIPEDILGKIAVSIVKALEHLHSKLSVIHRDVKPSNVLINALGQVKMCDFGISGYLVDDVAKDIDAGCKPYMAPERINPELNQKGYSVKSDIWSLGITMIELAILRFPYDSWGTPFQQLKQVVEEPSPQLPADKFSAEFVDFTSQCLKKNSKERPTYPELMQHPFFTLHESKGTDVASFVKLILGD
Sequence of Cyclin-dependent kinase 9 (Homo sapiens) (P50750 whole entry): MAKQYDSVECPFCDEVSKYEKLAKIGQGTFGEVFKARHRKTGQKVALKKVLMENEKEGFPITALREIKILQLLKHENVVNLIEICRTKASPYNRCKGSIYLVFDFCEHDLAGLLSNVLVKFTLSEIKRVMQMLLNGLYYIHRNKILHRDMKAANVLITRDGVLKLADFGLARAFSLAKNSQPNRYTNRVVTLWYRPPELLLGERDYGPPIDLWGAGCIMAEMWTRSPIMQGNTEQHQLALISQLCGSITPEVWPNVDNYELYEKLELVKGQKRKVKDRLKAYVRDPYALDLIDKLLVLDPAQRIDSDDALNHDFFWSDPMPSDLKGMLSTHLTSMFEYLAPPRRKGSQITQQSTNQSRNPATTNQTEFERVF
Sequence of Tyrosine-protein kinase Blk (Homo sapiens) (P51451 2-505 limits assumed): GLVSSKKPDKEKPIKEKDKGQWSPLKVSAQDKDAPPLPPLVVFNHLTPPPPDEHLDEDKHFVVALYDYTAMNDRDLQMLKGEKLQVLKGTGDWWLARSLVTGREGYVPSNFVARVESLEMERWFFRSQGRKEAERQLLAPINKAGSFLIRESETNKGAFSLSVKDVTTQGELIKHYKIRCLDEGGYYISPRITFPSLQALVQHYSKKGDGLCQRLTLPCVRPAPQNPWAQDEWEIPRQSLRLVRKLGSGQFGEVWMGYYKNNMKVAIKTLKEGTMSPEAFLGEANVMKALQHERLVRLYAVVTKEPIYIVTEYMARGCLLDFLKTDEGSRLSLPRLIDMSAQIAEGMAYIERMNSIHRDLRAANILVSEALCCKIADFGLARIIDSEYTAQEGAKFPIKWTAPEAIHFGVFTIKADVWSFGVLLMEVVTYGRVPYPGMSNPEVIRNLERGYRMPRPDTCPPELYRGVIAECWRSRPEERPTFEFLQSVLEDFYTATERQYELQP
Sequence of Mitogen-activated protein kinase kinase kinase kinase 4 (Homo sapiens) (O95819 2-1239 limits assumed): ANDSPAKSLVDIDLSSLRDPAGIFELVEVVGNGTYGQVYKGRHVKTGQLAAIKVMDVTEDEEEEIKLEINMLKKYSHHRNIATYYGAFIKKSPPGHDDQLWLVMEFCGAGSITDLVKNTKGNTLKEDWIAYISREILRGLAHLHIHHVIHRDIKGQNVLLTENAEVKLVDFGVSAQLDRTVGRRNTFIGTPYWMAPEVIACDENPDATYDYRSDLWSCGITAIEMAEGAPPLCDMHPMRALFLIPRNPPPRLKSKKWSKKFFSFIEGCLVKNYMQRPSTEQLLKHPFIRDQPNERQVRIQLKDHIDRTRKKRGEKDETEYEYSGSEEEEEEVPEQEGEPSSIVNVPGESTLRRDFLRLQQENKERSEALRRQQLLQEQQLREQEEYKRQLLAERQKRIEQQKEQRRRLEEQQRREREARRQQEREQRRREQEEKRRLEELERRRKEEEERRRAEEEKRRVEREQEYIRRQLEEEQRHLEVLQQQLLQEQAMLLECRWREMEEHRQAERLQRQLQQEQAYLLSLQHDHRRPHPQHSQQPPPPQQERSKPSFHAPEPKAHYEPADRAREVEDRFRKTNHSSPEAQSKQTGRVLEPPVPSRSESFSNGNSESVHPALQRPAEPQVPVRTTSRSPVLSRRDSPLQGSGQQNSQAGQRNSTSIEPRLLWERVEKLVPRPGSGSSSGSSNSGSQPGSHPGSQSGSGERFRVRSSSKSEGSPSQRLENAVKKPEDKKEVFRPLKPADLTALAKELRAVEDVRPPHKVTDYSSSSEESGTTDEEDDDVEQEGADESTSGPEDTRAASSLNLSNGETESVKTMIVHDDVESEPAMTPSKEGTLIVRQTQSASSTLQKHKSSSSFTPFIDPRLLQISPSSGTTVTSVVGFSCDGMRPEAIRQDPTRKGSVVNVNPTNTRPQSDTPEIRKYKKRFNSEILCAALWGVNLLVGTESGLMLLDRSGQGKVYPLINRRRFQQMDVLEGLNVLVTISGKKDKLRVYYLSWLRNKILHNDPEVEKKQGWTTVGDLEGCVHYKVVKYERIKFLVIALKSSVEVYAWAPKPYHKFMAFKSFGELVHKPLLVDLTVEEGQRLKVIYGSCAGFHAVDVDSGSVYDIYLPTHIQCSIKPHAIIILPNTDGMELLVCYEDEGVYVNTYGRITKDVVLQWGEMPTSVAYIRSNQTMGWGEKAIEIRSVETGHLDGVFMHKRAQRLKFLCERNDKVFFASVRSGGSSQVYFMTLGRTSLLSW
Sequence of Ribosomal protein S6 kinase alpha-2 (Homo sapiens) (Q15349 whole entry): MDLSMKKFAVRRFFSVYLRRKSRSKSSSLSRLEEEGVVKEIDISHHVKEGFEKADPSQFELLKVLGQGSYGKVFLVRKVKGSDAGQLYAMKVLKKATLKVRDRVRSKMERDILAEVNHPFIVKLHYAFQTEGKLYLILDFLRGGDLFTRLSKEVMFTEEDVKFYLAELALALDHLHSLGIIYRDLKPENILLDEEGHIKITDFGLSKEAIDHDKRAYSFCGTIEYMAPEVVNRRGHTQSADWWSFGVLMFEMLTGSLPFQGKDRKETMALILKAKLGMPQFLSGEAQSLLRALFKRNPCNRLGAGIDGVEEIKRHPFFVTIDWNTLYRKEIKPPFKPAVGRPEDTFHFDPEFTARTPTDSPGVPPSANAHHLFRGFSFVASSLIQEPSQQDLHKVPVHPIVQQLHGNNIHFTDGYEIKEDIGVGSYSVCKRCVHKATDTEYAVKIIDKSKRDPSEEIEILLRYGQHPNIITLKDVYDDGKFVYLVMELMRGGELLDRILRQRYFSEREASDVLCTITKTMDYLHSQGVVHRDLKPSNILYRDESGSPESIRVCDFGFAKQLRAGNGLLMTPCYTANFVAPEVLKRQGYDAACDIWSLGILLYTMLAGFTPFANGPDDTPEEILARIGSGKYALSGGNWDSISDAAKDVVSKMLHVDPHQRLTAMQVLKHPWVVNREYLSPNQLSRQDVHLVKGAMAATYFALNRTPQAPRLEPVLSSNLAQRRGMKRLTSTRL

- % Residual activity with Skepinone-L [1]: 83%
- % Residual activity with Skepinone-L [2]: 79%
- % Residual activity with Skepinone-L [3]: 97%
- % Residual activity with Skepinone-L [4]: 145%
- % Residual activity with Skepinone-L [5]: 99%
- % Residual activity with Skepinone-L [6]: 93%
- % Residual activity with Skepinone-L [7]: 96%
- inhibition [8]: -7.71%
- % Residual activity with Skepinone-L [9]: 99%
- % Residual activity with Skepinone-L [11]: 56%
- % Residual activity with Skepinone-L [12]: 101%
- % Residual activity with Skepinone-L [13]: 89%
- % Residual activity with Skepinone-L [14]: 104%
- % Residual activity with Skepinone-L [15]: 96%
- inhibition [16]: 19.5%
- % Residual activity with Skepinone-L [17]: 97%
- % Residual activity with Skepinone-L [19]: 77%
- % Residual activity with Skepinone-L [20]: 104%
- % Residual activity with Skepinone-L [21]: 103%
- inhibition [22]: 2.93%
- % Residual activity with Skepinone-L [23]: 80%
- inhibition [24]: 7.19%
- % Residual activity with Skepinone-L [25]: 71%
- % Residual activity with Skepinone-L [26]: 82%
- % Residual activity with Skepinone-L [27]: 95%
- inhibition [28]: 30.4%
- % Residual activity with Skepinone-L [29]: 107%
- inhibition [30]: 45.5%
- % Residual activity with Skepinone-L [31]: 99%
- inhibition [32]: -9.46%
- % Residual activity with Skepinone-L [33]: 107%
- % Residual activity with Skepinone-L [34]: 120%
- % Residual activity with Skepinone-L [35]: 69%
- % Residual activity with Skepinone-L [36]: 103%
- % Residual activity with Skepinone-L [37]: 108%
- % Residual activity with Skepinone-L [39]: 90%
- % Residual activity with Skepinone-L [40]: 91%
- % Residual activity with Skepinone-L [41]: 100%
- % Residual activity with Skepinone-L [42]: 85%
- inhibition [43]: 23.8%
- % Residual activity with Skepinone-L [44]: 89%
- % Residual activity with Skepinone-L [45]: 90%
- % Residual activity with Skepinone-L [46]: 111%
- % Residual activity with Skepinone-L [47]: 86%
- % Residual activity with Skepinone-L [48]: 103%
Structure (SMILES): O=C1c2ccc(Nc3ccc(F)cc3F)cc2CCc2ccc(OC[C@H](O)CO)cc21 [Skepinone-L]
- % Residual activity with Skepinone-L [10]: 89%
- % Residual activity with Skepinone-L [18]: 86%
- % Residual activity with Skepinone-L [38]: 113%
